# Assay results taken from paper PMC11233931, “Remodeling tumor‐associated macrophage for anti‐cancer effects by rational design of irreversible inhibition of mitogen‐activated protein kinase‐activated protein kinase 2” (MedComm, 2024).
# Like-named read-outs stand apart in the source and are kept apart here.
# Experiments:
# Test in all cases: Eurofins kinase selectivity profile against 380 other human recombinant kinases (Table S2)
# Type in all cases: biochemical
# [1] = biological target: T1, 380 human recombinant protein kinases (Homo sapiens, UniProt O75385); settings: ULK1(h), read-out: Inhibition rate (%)
# T1 construct: purchased Eurofins (Celle Lévescault)
# T1 sequence (O75385 1-1050): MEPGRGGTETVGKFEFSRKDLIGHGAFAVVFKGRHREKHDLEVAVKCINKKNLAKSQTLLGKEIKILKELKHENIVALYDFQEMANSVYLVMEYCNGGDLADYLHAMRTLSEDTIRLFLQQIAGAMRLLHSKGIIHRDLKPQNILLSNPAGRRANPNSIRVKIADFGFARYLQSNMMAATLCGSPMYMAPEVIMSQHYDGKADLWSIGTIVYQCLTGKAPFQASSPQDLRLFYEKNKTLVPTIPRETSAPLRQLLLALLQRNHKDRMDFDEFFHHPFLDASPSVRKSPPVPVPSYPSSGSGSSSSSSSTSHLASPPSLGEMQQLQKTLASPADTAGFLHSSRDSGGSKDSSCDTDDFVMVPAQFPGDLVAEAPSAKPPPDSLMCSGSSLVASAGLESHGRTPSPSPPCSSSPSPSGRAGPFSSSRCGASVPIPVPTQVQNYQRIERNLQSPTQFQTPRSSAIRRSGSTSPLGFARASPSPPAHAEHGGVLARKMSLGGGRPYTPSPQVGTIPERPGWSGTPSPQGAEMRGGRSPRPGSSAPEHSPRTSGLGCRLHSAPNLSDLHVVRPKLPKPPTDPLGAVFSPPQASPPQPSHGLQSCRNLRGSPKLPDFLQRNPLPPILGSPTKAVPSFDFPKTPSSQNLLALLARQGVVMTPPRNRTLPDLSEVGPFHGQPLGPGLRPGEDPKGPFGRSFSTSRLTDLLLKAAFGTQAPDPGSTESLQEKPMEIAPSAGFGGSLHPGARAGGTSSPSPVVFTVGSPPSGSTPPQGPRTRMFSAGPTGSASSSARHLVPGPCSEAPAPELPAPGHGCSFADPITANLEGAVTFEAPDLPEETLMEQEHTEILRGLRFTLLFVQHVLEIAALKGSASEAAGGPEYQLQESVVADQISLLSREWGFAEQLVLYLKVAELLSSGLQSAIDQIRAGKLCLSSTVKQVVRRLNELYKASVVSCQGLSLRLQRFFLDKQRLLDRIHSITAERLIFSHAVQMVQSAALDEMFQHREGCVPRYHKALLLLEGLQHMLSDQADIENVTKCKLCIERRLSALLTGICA
# Outline: (§1)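 Selectivity panel of 380 human recombinant protein kinases, screened by Eurofins at a range of concentrations.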
# [2] = biological target: T2, 380 human recombinant protein kinases (Homo sapiens, UniProt P07947); settings: Yes(h), read-out: Inhibition rate (%)
# T2 construct: purchased Eurofins (Celle Lévescault)
# T2 sequence (P07947 whole entry): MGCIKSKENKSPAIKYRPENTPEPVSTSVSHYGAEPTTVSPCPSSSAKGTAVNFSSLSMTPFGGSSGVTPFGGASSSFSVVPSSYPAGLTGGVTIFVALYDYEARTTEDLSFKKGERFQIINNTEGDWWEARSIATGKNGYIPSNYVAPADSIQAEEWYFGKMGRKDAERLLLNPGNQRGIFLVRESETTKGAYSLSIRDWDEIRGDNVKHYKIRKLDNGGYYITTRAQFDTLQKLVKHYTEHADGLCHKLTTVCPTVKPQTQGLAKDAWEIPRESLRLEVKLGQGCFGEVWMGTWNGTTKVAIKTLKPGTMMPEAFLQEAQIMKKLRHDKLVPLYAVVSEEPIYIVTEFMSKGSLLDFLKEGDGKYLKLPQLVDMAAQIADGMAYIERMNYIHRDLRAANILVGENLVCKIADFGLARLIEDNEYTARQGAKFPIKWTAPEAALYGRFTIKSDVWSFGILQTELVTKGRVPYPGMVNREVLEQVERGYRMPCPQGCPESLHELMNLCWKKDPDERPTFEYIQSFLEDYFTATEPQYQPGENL
# Outline: as §1
# [3] = biological target: T3, 380 human recombinant protein kinases (Homo sapiens, UniProt P42336); settings: read-out: Inhibition rate (%); for inhibition at 0.01 µM: 10 nM; for inhibition at 0.1 µM: 100 nM; for inhibition at 1 µM: 1000 nM
# T3 construct: purchased Eurofins (Celle Lévescault)
# T3 sequence (P42336 whole entry): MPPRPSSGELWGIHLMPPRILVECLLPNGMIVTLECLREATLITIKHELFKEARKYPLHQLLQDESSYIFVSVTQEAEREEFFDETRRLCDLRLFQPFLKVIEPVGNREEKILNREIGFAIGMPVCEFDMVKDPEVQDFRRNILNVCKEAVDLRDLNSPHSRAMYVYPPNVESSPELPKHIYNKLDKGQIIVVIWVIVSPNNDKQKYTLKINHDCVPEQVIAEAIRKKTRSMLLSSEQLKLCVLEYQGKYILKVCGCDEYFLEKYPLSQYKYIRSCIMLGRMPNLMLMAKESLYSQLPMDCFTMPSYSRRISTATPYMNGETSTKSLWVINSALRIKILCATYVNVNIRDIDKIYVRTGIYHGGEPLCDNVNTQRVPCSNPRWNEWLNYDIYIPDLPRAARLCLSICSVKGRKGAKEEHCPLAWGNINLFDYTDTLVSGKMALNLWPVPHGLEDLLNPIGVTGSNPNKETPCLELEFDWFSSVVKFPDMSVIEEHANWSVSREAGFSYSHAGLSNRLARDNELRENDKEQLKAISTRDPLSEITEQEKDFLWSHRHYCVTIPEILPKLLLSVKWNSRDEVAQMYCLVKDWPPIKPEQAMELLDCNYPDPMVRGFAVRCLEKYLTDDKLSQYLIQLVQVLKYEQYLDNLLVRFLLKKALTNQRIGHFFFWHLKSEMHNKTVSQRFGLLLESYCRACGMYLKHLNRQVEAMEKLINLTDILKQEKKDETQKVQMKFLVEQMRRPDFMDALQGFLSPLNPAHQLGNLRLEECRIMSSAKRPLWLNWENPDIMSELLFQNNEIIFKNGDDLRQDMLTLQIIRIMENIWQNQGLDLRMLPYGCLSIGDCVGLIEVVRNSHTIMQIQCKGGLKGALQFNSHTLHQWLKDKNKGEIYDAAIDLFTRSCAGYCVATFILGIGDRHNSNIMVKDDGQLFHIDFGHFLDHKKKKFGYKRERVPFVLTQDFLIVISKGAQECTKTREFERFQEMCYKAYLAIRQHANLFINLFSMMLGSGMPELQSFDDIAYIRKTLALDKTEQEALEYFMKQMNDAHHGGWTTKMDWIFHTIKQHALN
# Outline: as §1
# [4] = biological target: T4, 380 human recombinant protein kinases (Homo sapiens, UniProt P53779); settings: JNK3(h), read-out: Inhibition rate
# T4 construct: purchased Eurofins (Celle Lévescault)
# T4 sequence (P53779 whole entry): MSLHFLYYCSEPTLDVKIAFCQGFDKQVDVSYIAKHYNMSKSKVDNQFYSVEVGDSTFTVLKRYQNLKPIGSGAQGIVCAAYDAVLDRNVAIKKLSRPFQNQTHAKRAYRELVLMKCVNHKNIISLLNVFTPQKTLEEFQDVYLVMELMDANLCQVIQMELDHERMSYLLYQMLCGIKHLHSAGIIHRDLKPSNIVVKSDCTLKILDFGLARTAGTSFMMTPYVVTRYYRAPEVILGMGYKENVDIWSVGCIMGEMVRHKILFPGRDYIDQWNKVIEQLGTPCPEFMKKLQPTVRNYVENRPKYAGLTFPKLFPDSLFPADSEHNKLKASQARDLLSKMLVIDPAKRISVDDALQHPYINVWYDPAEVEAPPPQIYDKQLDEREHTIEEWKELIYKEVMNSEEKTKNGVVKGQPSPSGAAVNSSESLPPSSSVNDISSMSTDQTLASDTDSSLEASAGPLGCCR
# Outline: as §1
# [5] = biological target: T5, 380 human recombinant protein kinases (Homo sapiens, UniProt Q04759); settings: PKCθ(h), read-out: Inhibition rate
# T5 construct: purchased Eurofins (Celle Lévescault)
# T5 sequence (Q04759 whole entry): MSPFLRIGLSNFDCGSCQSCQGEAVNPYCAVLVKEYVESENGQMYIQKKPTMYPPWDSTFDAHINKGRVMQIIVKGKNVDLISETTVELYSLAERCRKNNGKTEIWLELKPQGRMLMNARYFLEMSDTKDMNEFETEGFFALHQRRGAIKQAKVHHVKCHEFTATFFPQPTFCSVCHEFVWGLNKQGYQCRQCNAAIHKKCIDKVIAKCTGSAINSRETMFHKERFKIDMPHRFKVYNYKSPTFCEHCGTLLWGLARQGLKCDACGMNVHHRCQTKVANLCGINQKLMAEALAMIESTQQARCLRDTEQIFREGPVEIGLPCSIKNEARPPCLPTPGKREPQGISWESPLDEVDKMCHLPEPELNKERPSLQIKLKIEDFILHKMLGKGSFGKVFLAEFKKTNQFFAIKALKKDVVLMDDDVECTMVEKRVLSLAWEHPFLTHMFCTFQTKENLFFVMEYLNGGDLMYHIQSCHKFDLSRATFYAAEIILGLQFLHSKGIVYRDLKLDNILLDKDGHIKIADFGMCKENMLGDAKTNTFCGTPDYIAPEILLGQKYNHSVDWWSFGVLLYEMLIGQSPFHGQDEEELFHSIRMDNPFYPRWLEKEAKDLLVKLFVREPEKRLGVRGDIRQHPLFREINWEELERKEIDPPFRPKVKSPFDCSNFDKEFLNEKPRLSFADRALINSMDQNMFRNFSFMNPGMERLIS
# Outline: as §1
# [6] = biological target: T6, 380 human recombinant protein kinases (Homo sapiens, UniProt Q08345); settings: DDR1(h), read-out: Inhibition rate
# T6 construct: purchased Eurofins (Celle Lévescault)
# T6 sequence (Q08345 19-913): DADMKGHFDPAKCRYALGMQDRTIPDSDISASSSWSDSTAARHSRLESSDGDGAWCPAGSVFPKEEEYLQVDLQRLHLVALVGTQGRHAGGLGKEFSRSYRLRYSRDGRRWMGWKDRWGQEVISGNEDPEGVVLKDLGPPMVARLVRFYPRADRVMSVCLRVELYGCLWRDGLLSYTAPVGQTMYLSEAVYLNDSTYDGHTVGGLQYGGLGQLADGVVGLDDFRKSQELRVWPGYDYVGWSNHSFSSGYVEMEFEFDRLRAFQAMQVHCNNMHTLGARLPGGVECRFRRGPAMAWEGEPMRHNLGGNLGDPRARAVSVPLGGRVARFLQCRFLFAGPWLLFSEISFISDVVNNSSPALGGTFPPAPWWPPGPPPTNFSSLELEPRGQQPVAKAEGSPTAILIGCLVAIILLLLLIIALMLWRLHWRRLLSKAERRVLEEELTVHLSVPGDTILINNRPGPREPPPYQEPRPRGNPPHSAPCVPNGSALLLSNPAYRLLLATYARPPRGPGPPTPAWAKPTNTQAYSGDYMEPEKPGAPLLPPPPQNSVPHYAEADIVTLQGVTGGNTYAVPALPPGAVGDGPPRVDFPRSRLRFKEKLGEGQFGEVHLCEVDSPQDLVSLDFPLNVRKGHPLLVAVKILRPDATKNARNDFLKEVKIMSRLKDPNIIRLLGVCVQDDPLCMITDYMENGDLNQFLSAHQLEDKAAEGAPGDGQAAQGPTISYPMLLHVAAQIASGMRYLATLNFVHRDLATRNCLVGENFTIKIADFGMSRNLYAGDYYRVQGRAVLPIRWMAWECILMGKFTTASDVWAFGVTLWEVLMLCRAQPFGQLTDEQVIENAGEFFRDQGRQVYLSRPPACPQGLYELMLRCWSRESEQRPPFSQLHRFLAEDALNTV
# Outline: as §1
# [7] = biological target: T7, 380 human recombinant protein kinases (Homo sapiens, UniProt Q9NY57); settings: STK32B(h), read-out: Inhibition rate (%)
# T7 construct: purchased Eurofins (Celle Lévescault)
# T7 sequence (Q9NY57 whole entry): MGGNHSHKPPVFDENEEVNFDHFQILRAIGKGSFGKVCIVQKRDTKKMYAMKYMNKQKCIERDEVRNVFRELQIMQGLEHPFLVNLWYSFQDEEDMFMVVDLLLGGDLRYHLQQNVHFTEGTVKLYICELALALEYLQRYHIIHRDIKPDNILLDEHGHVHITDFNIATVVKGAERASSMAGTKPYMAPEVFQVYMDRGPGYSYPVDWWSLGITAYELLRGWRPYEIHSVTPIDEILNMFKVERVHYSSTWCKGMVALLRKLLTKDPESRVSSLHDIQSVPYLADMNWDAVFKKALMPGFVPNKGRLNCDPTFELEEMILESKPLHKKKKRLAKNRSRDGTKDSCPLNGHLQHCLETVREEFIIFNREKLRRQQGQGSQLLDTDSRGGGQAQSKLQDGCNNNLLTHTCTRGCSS
# Outline: as §1
# [8] = biological target: T8, 380 human recombinant protein kinases (Homo sapiens, UniProt Q9NYL2); settings: ZAK(h), read-out: Inhibition rate (%)
# T8 construct: purchased Eurofins (Celle Lévescault)
# T8 sequence (Q9NYL2 whole entry): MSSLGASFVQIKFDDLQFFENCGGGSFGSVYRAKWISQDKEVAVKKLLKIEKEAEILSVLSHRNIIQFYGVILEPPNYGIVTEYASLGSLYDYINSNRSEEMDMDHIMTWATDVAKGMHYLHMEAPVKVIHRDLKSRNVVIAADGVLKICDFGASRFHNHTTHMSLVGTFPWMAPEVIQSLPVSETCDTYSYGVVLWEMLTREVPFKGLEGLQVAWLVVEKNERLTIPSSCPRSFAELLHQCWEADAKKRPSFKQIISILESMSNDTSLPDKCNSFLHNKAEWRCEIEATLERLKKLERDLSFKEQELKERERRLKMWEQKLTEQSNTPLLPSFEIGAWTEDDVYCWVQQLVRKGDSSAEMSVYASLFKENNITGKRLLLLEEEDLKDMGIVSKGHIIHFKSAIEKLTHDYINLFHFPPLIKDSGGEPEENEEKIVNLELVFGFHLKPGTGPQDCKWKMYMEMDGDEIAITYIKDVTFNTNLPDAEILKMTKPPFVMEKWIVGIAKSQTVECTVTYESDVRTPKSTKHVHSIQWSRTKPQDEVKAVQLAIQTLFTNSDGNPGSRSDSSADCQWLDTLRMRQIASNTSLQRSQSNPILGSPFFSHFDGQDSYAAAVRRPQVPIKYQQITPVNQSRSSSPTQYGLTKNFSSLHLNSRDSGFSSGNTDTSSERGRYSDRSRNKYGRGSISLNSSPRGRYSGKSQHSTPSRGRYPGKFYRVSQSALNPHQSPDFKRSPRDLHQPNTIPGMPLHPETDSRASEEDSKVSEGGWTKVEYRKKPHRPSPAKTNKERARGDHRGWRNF
# Outline: as §1
smiles,measurement,setting,value
C=CC(=O)Nc1cc(-c2cc(-c3cc4c([nH]3)CCNC4=O)ccn2)ccc1OC(F)(F)F [compound 11],inhibition at 0.01 µM,[1]; 10 nM,6%
same,inhibition at 0.1 µM,[1]; 100 nM,-8%
same,inhibition at 1 µM,[1]; 1000 nM,-3%
same,inhibition at 0.01 µM,[2]; 10 nM,-2%
same,inhibition at 0.1 µM,[2]; 100 nM,0%
same,inhibition at 1 µM,[2]; 1000 nM,-3%
same,inhibition at 0.01 µM,[3]; PI3 Kinase (p110α/p65α)(h),3%
same,inhibition at 0.1 µM,[3]; PI3 Kinase (p110α/p65α)(h),0%
same,inhibition at 1 µM,[3]; PI3 Kinase (p110α/p65α)(h),1%
same,inhibition at 0.01 µM,[3]; PI3 Kinase (p110α/p85α)(h),-1%
same,inhibition at 0.1 µM,[3]; PI3 Kinase (p110α/p85α)(h),0%
same,inhibition at 1 µM,[3]; PI3 Kinase (p110α/p85α)(h),-1%
same,inhibition at 0.01 µM,[4]; 10 nM,4%
same,inhibition at 0.1 µM,[4]; 100 nM,6%
same,inhibition at 1 µM,[4]; 1000 nM,38%
same,inhibition at 0.01 µM,[5]; 10 nM,6%
same,inhibition at 0.1 µM,[5]; 100 nM,0%
same,inhibition at 1 µM,[5]; 1000 nM,4%
same,inhibition at 0.01 µM,[6]; 10 nM,0%
same,inhibition at 0.1 µM,[6]; 100 nM,-1%
same,inhibition at 1 µM,[6]; 1000 nM,-7%
same,inhibition at 0.01 µM,[7]; 10 nM,-9%
same,inhibition at 0.1 µM,[7]; 100 nM,-5%
same,inhibition at 1 µM,[7]; 1000 nM,-3%
same,inhibition at 0.01 µM,[8]; 10 nM,-3%
same,inhibition at 0.1 µM,[8]; 100 nM,-1%
same,inhibition at 1 µM,[8]; 1000 nM,1%
